Experimental data from patent publication US6737383B1, “Herbicidal oxadiazolidines” (priority 1999, dated 2004).

Experiments:
bedstraw = assay: Test B pre/postemergence bedstraw; assay type: in vivo, Galium aparine; conditions: for Plant response rating, Bedstraw: Rate 62 g/ha, scale of 0 to 10 where 0 is no effect and 10 is complete control
How it was run: (§1)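 Response is a visual 0-to-10 score relative to untreated plants, where 0 means no effect and 10 means complete control, taken twelve to sixteen days after application. Treatments went onto soil at planting and onto foliage of 1- to 4-leaf plants, using a surfactant-containing non-phytotoxic solvent.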

blackgrass = assay: Test B pre/postemergence blackgrass; assay type: in vivo, Alopecurus myosuroides
How it was run: as §1

surinam grass = assay: Test B pre/postemergence surinam grass; assay type: in vivo, Brachiaria decumbens
How it was run: as §1

cocklebur = assay: Test B pre/postemergence cocklebur; assay type: in vivo, Xanthium strumarium
How it was run: as §1

corn = assay: Test B pre/postemergence corn; assay type: in vivo, Zea mays
How it was run: as §1

crabgrass = assay: Test B pre/postemergence crabgrass; assay type: in vivo, Digitaria sanguinalis
How it was run: as §1

giant foxtail = assay: Test B pre/postemergence giant foxtail; assay type: in vivo, Setaria faberii
How it was run: as §1

morningglory = assay: Test B pre/postemergence morningglory; assay type: in vivo, Ipomoea hederacea
How it was run: as §1

pigweed = assay: Test B pre/postemergence pigweed; assay type: in vivo, Amaranthus retroflexus
How it was run: as §1

rape = assay: Test B pre/postemergence rape; assay type: in vivo, Brassica napus
How it was run: as §1

soybean = assay: Test B pre/postemergence soybean; assay type: in vivo, Glycine max
How it was run: as §1

sugar beet = assay: Test B pre/postemergence sugar beet; assay type: in vivo, Beta vulgaris
How it was run: as §1

velvetleaf = assay: Test B pre/postemergence velvetleaf; assay type: in vivo, Abutilon theophrasti
How it was run: as §1

wheat = assay: Test B pre/postemergence wheat; assay type: in vivo, Triticum aestivum
How it was run: as §1

wild oat = assay: Test B pre/postemergence wild oat; assay type: in vivo, Avena fatua
How it was run: as §1

purple nutsedge = assay: Test B pre/postemergence purple nutsedge; assay type: in vivo, Cyperus rotundus
How it was run: as §1

[1] = Postemergence, Rate 250 g/ha, scale 0 to 10
[2] = Preemergence, Rate 125 g/ha, scale 0 to 10, 0 is no effect, 10 is complete control
[3] = Preemergence, Rate 250 g/ha, scale 0 to 10, 0 is no effect, 10 is complete control
[4] = Preemergence, Rate 500 g/ha, scale 0 to 10, 0 is no effect, 10 is complete control
[5] = Postemergence, Rate 62 g/ha, scale of 0 to 10, 0 is no effect, 10 is complete control
[6] = Postemergence, Rate 125 g/ha, scale 0 to 10, 0 is no effect, 10 is complete control
[7] = Postemergence, Rate 500 g/ha, scale 0 to 10, 0 is no effect, 10 is complete control
[8] = Preemergence, Rate 62 g/ha, scale of 0 to 10 where 0 is no effect and 10 is complete control
[9] = Preemergence, Rate 500 g/ha, scale of 0 to 10 where 0 is no effect and 10 is complete control
[10] = Postemergence, Rate 250 g/ha, scale 0 to 10, 0 no effect, 10 complete control

CCN(CC)C(=O)Cn1c(=O)on(C(=O)N(c2ccc(F)cc2F)C(C)C)c1=O [Compound 512]
Bedstraw plant response rating (bedstraw; [1]): 7 | Plant response rating, Bedstraw (bedstraw; Preemergence): 0 | Bedstraw plant response rating (bedstraw; [2]): 0 | Bedstraw plant response rating (bedstraw; [3]): 0 | Bedstraw plant response rating (bedstraw; [4]): 3 | Blackgrass plant response rating (blackgrass; [5]): 2 | Blackgrass plant response rating (blackgrass; [6]): 3 | Blackgrass plant response rating (blackgrass; [1]): 6 | Plant response rating, Blackgrass (blackgrass; [7]): 6 | Plant response rating, Blackgrass (blackgrass; [8]): 0 | Blackgrass plant response rating (blackgrass; [2]): 2 | Blackgrass plant response rating (blackgrass; [3]): 9 | Blackgrass plant response rating (blackgrass; [9]): 10 | B. signalgrass plant response rating (surinam grass; [5]): 0 | B. signalgrass plant response rating (surinam grass; [6]): 1 | B. signalgrass plant response rating (surinam grass; [10]): 4 | Plant response rating, B. signalgrass (surinam grass; [7]): 5 | Plant response rating, B. signalgrass (surinam grass; [8]): 3 | B. signalgrass plant response rating (surinam grass; [2]): 8 | B. signalgrass plant response rating (surinam grass; [3]): 10 | B. signalgrass plant response rating (surinam grass; [4]): 10 | Cocklebur plant response rating (cocklebur; [5]): 0 | Cocklebur plant response rating (cocklebur; [6]): 2 | Cocklebur plant response rating (cocklebur; [1]): 3 | Plant response rating, Cocklebur (cocklebur; [7]): 7 | Plant response rating, Cocklebur (cocklebur; [8]): 0 | Cocklebur plant response rating (cocklebur; [2]): 0 | Cocklebur plant response rating (cocklebur; [3]): 0 | Cocklebur plant response rating (cocklebur; [9]): 0 | Corn plant response rating (corn; [5]): 0 | Corn plant response rating (corn; [6]): 0 | Corn plant response rating (corn; [1]): 0 | Plant response rating, Corn (corn; [7]): 0 | Plant response rating, Corn (corn; [8]): 0 | Corn plant response rating (corn; [2]): 0 | Corn plant response rating (corn; [9]): 3 | Crabgrass plant response rating (crabgrass; [5]): 2 | Crabgrass plant response rating (crabgrass; [6]): 2 | Crabgrass plant response rating (crabgrass; [1]): 5 | Plant response rating, Crabgrass (crabgrass; [7]): 9 | Plant response rating, Crabgrass (crabgrass; [8]): 3 | Crabgrass plant response rating (crabgrass; [2]): 7 | Crabgrass plant response rating (crabgrass; [9]): 9 | Giant foxtail plant response rating (giant foxtail; [5]): 2 | Giant foxtail plant response rating (giant foxtail; [6]): 3 | Plant response rating, Giant foxtail (giant foxtail; [7]): 8 | Plant response rating, Giant foxtail (giant foxtail; [8]): 5 | Giant foxtail plant response rating (giant foxtail; [2]): 9 | Giant foxtail plant response rating (giant foxtail; [9]): 10 | Morningglory plant response rating (morningglory; [5]): 5 | Morningglory plant response rating (morningglory; [6]): 5 | Plant response rating, Morningglory (morningglory; [7]): 7 | Plant response rating, Morningglory (morningglory; [8]): 0 | Morningglory plant response rating (morningglory; [2]): 0 | Morningglory plant response rating (morningglory; [9]): 0 | Redroot pigweed plant response rating (pigweed; [5]): 1 | Redroot pigweed plant response rating (pigweed; [6]): 7 | Plant response rating, Redroot pigweed (pigweed; [7]): 9 | Plant response rating, Redroot pigweed (pigweed; [8]): 3 | Redroot pigweed plant response rating (pigweed; [2]): 9 | Redroot pigweed plant response rating (pigweed; [9]): 10 | Rape plant response rating (rape; [5]): 0 | Rape plant response rating (rape; [6]): 0 | Plant response rating, Rape (rape; [7]): 0 | Plant response rating, Rape (rape; [8]): 0 | Rape plant response rating (rape; [2]): 0 | Rape plant response rating (rape; [9]): 5 | Soybean plant response rating (soybean; [5]): 4 | Soybean plant response rating (soybean; [6]): 4 | Plant response rating, Soybean (soybean; [7]): 7 | Plant response rating, Soybean (soybean; [8]): 0 | Soybean plant response rating (soybean; [2]): 0 | Soybean plant response rating (soybean; [9]): 0 | Sugarbeets plant response rating (sugar beet; [5]): 0 | Sugarbeets plant response rating (sugar beet; [6]): 0 | Plant response rating, Sugarbeets (sugar beet; [7]): 7 | Plant response rating, Sugarbeets (sugar beet; [8]): 0 | Sugarbeets plant response rating (sugar beet; [2]): 0 | Sugarbeets plant response rating (sugar beet; [9]): 5 | Velvetleaf plant response rating (velvetleaf; [5]): 0 | Velvetleaf plant response rating (velvetleaf; [6]): 0 | Plant response rating, Velvetleaf (velvetleaf; [7]): 1 | Plant response rating, Velvetleaf (velvetleaf; [8]): 0 | Velvetleaf plant response rating (velvetleaf; [2]): 0 | Velvetleaf plant response rating (velvetleaf; [9]): 0 | Wheat plant response rating (wheat; [5]): 0 | Wheat plant response rating (wheat; [6]): 0 | Plant response rating, Wheat (wheat; [7]): 2 | Plant response rating, Wheat (wheat; [8]): 0 | Wheat plant response rating (wheat; [2]): 2 | Wheat plant response rating (wheat; [9]): 6 | Wild oats plant response rating (wild oat; [5]): 0 | Wild oats plant response rating (wild oat; [6]): 0 | Plant response rating, Wild oats (wild oat; [7]): 1 | Plant response rating, Wild oats (wild oat; [8]): 2 | Wild oats plant response rating (wild oat; [2]): 2 | Wild oats plant response rating (wild oat; [9]): 10 | Nutsedge plant response rating (purple nutsedge; [5]): 0 | Plant response rating, Nutsedge (purple nutsedge; [8]): 0

CC(C)N(C(=O)n1oc(=O)n(CCCF)c1=O)c1ccc(F)cc1F [Compound 500]
Bedstraw plant response rating (bedstraw; [6]): 9 | Bedstraw plant response rating (bedstraw; [1]): 9 | Plant response rating, Bedstraw (bedstraw; Preemergence): 8 | Bedstraw plant response rating (bedstraw; [2]): 9 | Bedstraw plant response rating (bedstraw; [3]): 9 | Bedstraw plant response rating (bedstraw; [4]): 10 | Blackgrass plant response rating (blackgrass; [5]): 3 | Blackgrass plant response rating (blackgrass; [6]): 4 | Blackgrass plant response rating (blackgrass; [1]): 6 | Plant response rating, Blackgrass (blackgrass; [7]): 6 | Plant response rating, Blackgrass (blackgrass; [8]): 9 | Blackgrass plant response rating (blackgrass; [2]): 9 | Blackgrass plant response rating (blackgrass; [3]): 10 | Blackgrass plant response rating (blackgrass; [9]): 10 | B. signalgrass plant response rating (surinam grass; [5]): 3 | B. signalgrass plant response rating (surinam grass; [6]): 5 | B. signalgrass plant response rating (surinam grass; [10]): 7 | Plant response rating, B. signalgrass (surinam grass; [7]): 8 | Plant response rating, B. signalgrass (surinam grass; [8]): 9 | B. signalgrass plant response rating (surinam grass; [2]): 9 | B. signalgrass plant response rating (surinam grass; [3]): 9 | B. signalgrass plant response rating (surinam grass; [4]): 10 | Cocklebur plant response rating (cocklebur; [5]): 3 | Cocklebur plant response rating (cocklebur; [6]): 3 | Cocklebur plant response rating (cocklebur; [1]): 3 | Plant response rating, Cocklebur (cocklebur; [7]): 5 | Plant response rating, Cocklebur (cocklebur; [8]): 0 | Cocklebur plant response rating (cocklebur; [2]): 0 | Cocklebur plant response rating (cocklebur; [3]): 2 | Cocklebur plant response rating (cocklebur; [9]): 2 | Corn plant response rating (corn; [5]): 2 | Corn plant response rating (corn; [6]): 2 | Corn plant response rating (corn; [1]): 2 | Plant response rating, Corn (corn; [7]): 6 | Plant response rating, Corn (corn; [8]): 0 | Corn plant response rating (corn; [2]): 5 | Corn plant response rating (corn; [9]): 8 | Crabgrass plant response rating (crabgrass; [5]): 6 | Crabgrass plant response rating (crabgrass; [6]): 9 | Crabgrass plant response rating (crabgrass; [1]): 8 | Plant response rating, Crabgrass (crabgrass; [7]): 9 | Plant response rating, Crabgrass (crabgrass; [8]): 7 | Crabgrass plant response rating (crabgrass; [2]): 9 | Crabgrass plant response rating (crabgrass; [9]): 10 | Giant foxtail plant response rating (giant foxtail; [5]): 7 | Giant foxtail plant response rating (giant foxtail; [6]): 8 | Plant response rating, Giant foxtail (giant foxtail; [7]): 9 | Plant response rating, Giant foxtail (giant foxtail; [8]): 9 | Giant foxtail plant response rating (giant foxtail; [2]): 10 | Giant foxtail plant response rating (giant foxtail; [9]): 10 | Morningglory plant response rating (morningglory; [5]): 3 | Morningglory plant response rating (morningglory; [6]): 3 | Plant response rating, Morningglory (morningglory; [7]): 3 | Plant response rating, Morningglory (morningglory; [8]): 0 | Morningglory plant response rating (morningglory; [2]): 5 | Morningglory plant response rating (morningglory; [9]): 9 | Redroot pigweed plant response rating (pigweed; [5]): 7 | Redroot pigweed plant response rating (pigweed; [6]): 9 | Plant response rating, Redroot pigweed (pigweed; [7]): 10 | Plant response rating, Redroot pigweed (pigweed; [8]): 10 | Redroot pigweed plant response rating (pigweed; [2]): 10 | Redroot pigweed plant response rating (pigweed; [9]): 10 | Rape plant response rating (rape; [5]): 3 | Rape plant response rating (rape; [6]): 3 | Plant response rating, Rape (rape; [7]): 8 | Plant response rating, Rape (rape; [8]): 9 | Rape plant response rating (rape; [2]): 10 | Rape plant response rating (rape; [9]): 10 | Soybean plant response rating (soybean; [5]): 3 | Soybean plant response rating (soybean; [6]): 4 | Plant response rating, Soybean (soybean; [7]): 4 | Plant response rating, Soybean (soybean; [8]): 0 | Soybean plant response rating (soybean; [2]): 3 | Soybean plant response rating (soybean; [9]): 8 | Sugarbeets plant response rating (sugar beet; [5]): 6 | Sugarbeets plant response rating (sugar beet; [6]): 6 | Plant response rating, Sugarbeets (sugar beet; [7]): 9 | Plant response rating, Sugarbeets (sugar beet; [8]): 9 | Sugarbeets plant response rating (sugar beet; [2]): 10 | Sugarbeets plant response rating (sugar beet; [9]): 10 | Velvetleaf plant response rating (velvetleaf; [5]): 4 | Velvetleaf plant response rating (velvetleaf; [6]): 4 | Plant response rating, Velvetleaf (velvetleaf; [7]): 5 | Plant response rating, Velvetleaf (velvetleaf; [8]): 5 | Velvetleaf plant response rating (velvetleaf; [2]): 8 | Velvetleaf plant response rating (velvetleaf; [9]): 10 | Wheat plant response rating (wheat; [5]): 0 | Plant response rating, Wheat (wheat; [7]): 5 | Plant response rating, Wheat (wheat; [8]): 2 | Wheat plant response rating (wheat; [2]): 6 | Wheat plant response rating (wheat; [9]): 8 | Wild oats plant response rating (wild oat; [5]): 0 | Wild oats plant response rating (wild oat; [6]): 0 | Plant response rating, Wild oats (wild oat; [7]): 7 | Plant response rating, Wild oats (wild oat; [8]): 7 | Wild oats plant response rating (wild oat; [2]): 9 | Wild oats plant response rating (wild oat; [9]): 10 | Nutsedge plant response rating (purple nutsedge; [5]): 0 | Plant response rating, Nutsedge (purple nutsedge; [7]): 2 | Plant response rating, Nutsedge (purple nutsedge; [8]): 0 | Nutsedge plant response rating (purple nutsedge; [2]): 8 | Nutsedge plant response rating (purple nutsedge; [9]): 10
